Measured values: US12606528B2, “Methods and materials for inhibiting NF-kB activity” (University of Pittsburgh - Of the Commonwealth System of …, priority 2019, dated 2026)
Where two headings read alike, the source gives them in different places.

Key:
TNF release = assay: TNF assay: TNF release from LPS-stimulated human PBMCs (TNF ELISA); type: cell-based; conditions: PBMC, read-out: IC50 (TNF assay)
Procedure: 25k THP1-NF-κB-LUC cells were dispensed into 384 well plate (per well). Cells were treated with compounds with various concentrations for 2 hours before addition of LPS (10 ng/mL) for 18 hours. Secreted luciferase activity were measured using quant-luc reagents (1 bag of luc reagent dilute to 40 mL, use 10 μL per well). Data were normalized to vehicle control and graphed. Compound IC50 towards inhibiting NF-κB were determined through Prism. Similarly, 10k human PBMCs cells were cultured in 384 well plate (per well). Cells were treated with compounds with various concentrations for 2 hours before addition of LPS (10 ng/ml) for 18 hours, and supernatants were collected and assayed for TNF ELISA. Compound IC50 towards inhibiting TNF release were determined through Prism. • Activity: “+”>10 μM, “++”>1 μM and <10 μM, “+++”>0.1 μM and <1 μM, “++++”<0.1 μM.

NF-κB = NF-κB assay: THP1-NF-κB-LUC cells, LPS-stimulated secreted luciferase; type: cell-based; conditions: THP1-NF-κB-LUC cells, read-out: IC50 (NF-κB assay)
Summary of the method: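 THP1-NF-κB-LUC cells (25k/well) were pretreated with compounds for 2 h, then stimulated with LPS (10 ng/mL) for 18 h. Secreted luciferase was measured and normalized to vehicle, and IC50 was fitted from the concentration series.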

[1] = human PBMCs, compounds 2 hours before LPS (10 ng/ml) for 18 hours, supernatant TNF ELISA
[2] = compounds 2 hours before LPS (10 ng/mL) for 18 hours, secreted luciferase
[3] = LPS-stimulated human PBMCs, TNF ELISA

Structure (SMILES)	IC50 (TNF release; [1])	IC50 (NF-κB; [2])	IC50 (TNF release; [3])	IC50 (NF-κB; LPS-stimulated)
COc1ccc(NS(=O)(=O)c2cc(Br)cc3c2OCC(=O)N3)cc1 [BC19175]	> 10 µM	< 0.1 µM		
O=C1COc2c(cc(Br)cc2S(=O)(=O)Nc2ccc(F)c(F)c2)N1 [BC19177]	> 10 µM	< 0.1 µM		
O=C1COc2c(cc(Br)cc2S(=O)(=O)Nc2ccc(F)cc2F)N1 [BC19178]	1 to 10 µM	< 0.1 µM		
CCc1ccc(NS(=O)(=O)c2cc(Br)cc3c2OCC(=O)N3)cc1 [BC19179]	> 10 µM	< 0.1 µM		
CCc1cccc(NS(=O)(=O)c2cc(Br)cc3c2OCC(=O)N3)c1 [BC19180]	> 10 µM	< 0.1 µM		
CN1CC(=O)Nc2ccc(S(=O)(=O)N3CCCC3)cc21 [BC19181]			> 10 µM	> 10 µM
CNC(=O)N1CC(=O)Nc2ccc(S(=O)(=O)N3CCCC3)cc21 [BC19183]			> 10 µM	> 10 µM
CN1CCN(C(=O)c2ccc3nc(-c4ccc(F)cc4)c(-c4cccs4)nc3c2)CC1 [BC19185]			> 10 µM	< 0.1 µM
Fc1ccc(-c2nc3cc(-c4nnn[nH]4)ccc3nc2-c2cccs2)cc1 [BC19186]			> 10 µM	1 to 10 µM
NC(=O)c1ccc2nc(-c3ccc(F)cc3)c(-c3cccs3)nc2c1 [BC19187]			> 10 µM	0.1 to 1 µM
CNC(=O)c1ccc2nc(-c3ccc(F)cc3)c(-c3cccs3)nc2c1 [BC19188]			> 10 µM	0.1 to 1 µM
C#CCNC(=O)c1ccc2nc(-c3ccc(F)cc3)c(-c3cccs3)nc2c1 [BC19189]			> 10 µM	0.1 to 1 µM
Cc1nc(-c2ccc3nc(-c4ccc(F)cc4)c(-c4ccc(F)cc4)nc3c2)no1 [BC19190]			> 10 µM	0.1 to 1 µM
CN1CCN(C(=O)c2ccc3nc(-c4cccs4)cnc3c2)CC1 [BC19191]			> 10 µM	> 10 µM
N#Cc1ccc2nc(-c3ccc(F)cc3)c(-c3ccc(F)cc3)nc2c1 [BC19192]			> 10 µM	0.1 to 1 µM
Cc1noc(-c2ccc3nc(-c4ccc(F)cc4)c(-c4ccc(F)cc4)nc3c2)n1 [BC19193]			> 10 µM	0.1 to 1 µM
N=C(NO)c1ccc2nc(-c3ccc(F)cc3)c(-c3ccc(F)cc3)nc2c1 [BC19194]			> 10 µM	< 0.1 µM

Structure (SMILES)	IC50 (TNF release; [1])	IC50 (NF-κB; [2])	IC50 (TNF release; [3])	IC50 (NF-κB; LPS-stimulated)
CC(C)OC(=O)Nc1ccc2nc(-c3ccc(F)cc3)c(-c3ccc(F)cc3)nc2c1 [BC19195]			> 10 µM	1 to 10 µM
O=c1c(S(=O)(=O)c2ccc(F)c(F)c2)c[nH]c2c(Cl)ccc(F)c12 [BC19196]	> 10 µM	0.1 to 1 µM		
Cc1ccc(F)c2c(=O)c(S(=O)(=O)c3ccc(F)c(F)c3)c[nH]c12 [BC19197]	> 10 µM	0.1 to 1 µM		
Cc1ccc(C)c2c(=O)c(S(=O)(=O)c3ccc(F)c(F)c3)c[nH]c12 [BC19198]	> 10 µM	1 to 10 µM		
COc1ccc(Cl)c2c(=O)c(S(=O)(=O)c3ccc(F)c(F)c3)c[nH]c12 [BC19199]	> 10 µM	0.1 to 1 µM		
COc1ccc(C)c2c(=O)c(S(=O)(=O)c3ccc(F)c(F)c3)c[nH]c12 [BC19200]	> 10 µM	1 to 10 µM		
O=c1c(S(=O)(=O)c2ccc(F)c(F)c2)c[nH]c2ccncc12 [BC19201]	> 10 µM	> 10 µM		
COc1ccc2[nH]cc(S(=O)(=O)c3ccc(F)cc3)c(=O)c2n1 [BC19202]	> 10 µM	> 10 µM		
O=S(=O)(c1ccccc1)c1cnn(-c2ccccc2)c1 [BC19204]			> 10 µM	> 10 µM
O=S(=O)(c1ccccc1)c1ccn(-c2ccccc2)n1 [BC19205]			> 10 µM	1 to 10 µM
CC1Nc2cc(S(=O)(=O)N3CCCC3)ccc2NC1=O (stereo not shown) [BC19235]			> 10 µM	> 10 µM
O=C(NCCN1CCOCC1)c1ccc2nc(-c3ccc(F)cc3)c(-c3ccc(F)cc3)nc2c1 [BC19237]			> 10 µM	< 0.1 µM
Fc1ccc(-c2nc3ccc(-c4nnnn4CCN4CCOCC4)cc3nc2-c2ccc(F)cc2)cc1 [BC19238]			> 10 µM	< 0.1 µM
O=C(Nc1ccc2nc(-c3ccc(F)cc3)c(-c3ccc(F)cc3)nc2c1)OCC(F)(F)F [BC19239]			> 10 µM	0.1 to 1 µM
Fc1ccc(-c2nc3ccc(-c4cn(CCN5CCOCC5)nn4)cc3nc2-c2ccc(F)cc2)cc1 [BC19240]			> 10 µM	< 0.1 µM
Cc1nc(C)c(-c2ccc3nc(-c4ccc(F)cc4)c(-c4ccc(F)cc4)nc3c2)s1 [BC19241]			> 10 µM	1 to 10 µM
Fc1ccc(-c2nc3ccc(-c4cccnc4)cc3nc2-c2ccc(F)cc2)cc1 [BC19242]			> 10 µM	0.1 to 1 µM

Continued, values first:

IC50 (TNF release; [1])	IC50 (NF-κB; [2])	IC50 (TNF release; [3])	IC50 (NF-κB; LPS-stimulated)	Structure (SMILES)
> 10 µM	< 0.1 µM			CC(C)c1ccc(NS(=O)(=O)c2cc(Cl)cc3c2OCC(=O)N3)cc1 [BC19174]
> 10 µM	< 0.1 µM			Cc1ccc(NS(=O)(=O)c2cc(Cl)cc3c2OCC(=O)N3)cc1Cl [BC19176]
		> 10 µM	> 10 µM	CC(=O)N1c2cc(S(=O)(=O)N3CCCC3)ccc2NC(=O)C1C (stereo not shown) [BC19182]
		> 10 µM	> 10 µM	CC(C)CC(=O)N1c2cc(S(=O)(=O)N3CCCC3)ccc2NC(=O)C1C (stereo not shown) [BC19184]
> 10 µM	1 to 10 µM			CC1Oc2cc(S(=O)(=O)Nc3ccccc3)c(Cl)cc2NC1=O (stereo not shown) [BC19206]
> 10 µM	> 10 µM			CC(C)NS(=O)(=O)c1cc2c(cc1Cl)NC(=O)C(C)O2 (stereo not shown) [BC19207]
> 10 µM	> 10 µM			CC1Oc2cc(S(=O)(=O)N3CCCC3)c(Cl)cc2NC1=O (stereo not shown) [BC19208]
> 10 µM	1 to 10 µM			CCNS(=O)(=O)c1cc2c(cc1Cl)NC(=O)C(C)O2 (stereo not shown) [BC19209]
> 10 µM	< 0.1 µM			CCC1Oc2cc(S(=O)(=O)Nc3ccc(C(C)C)cc3)c(Cl)cc2NC1=O (stereo not shown) [BC19210]
> 10 µM	0.1 to 1 µM			CCC1Oc2cc(S(=O)(=O)Nc3ccc(OC)cc3)c(Cl)cc2NC1=O (stereo not shown) [BC19211]
> 10 µM	< 0.1 µM			CCC1Oc2cc(S(=O)(=O)Nc3ccc(C)c(F)c3)c(Cl)cc2NC1=O (stereo not shown) [BC19212]
> 10 µM	0.1 to 1 µM			CCC1Oc2cc(S(=O)(=O)Nc3cccc(SC)c3)c(Cl)cc2NC1=O (stereo not shown) [BC19213]
> 10 µM	> 10 µM			CCCNS(=O)(=O)c1cc2c(cc1Cl)NC(=O)C(CC)O2 (stereo not shown) [BC19214]
> 10 µM	1 to 10 µM			CCC1Oc2cc(S(=O)(=O)Nc3cc(Cl)ccc3C)c(Cl)cc2NC1=O (stereo not shown) [BC19215]
> 10 µM	< 0.1 µM			CCc1ccc(NS(=O)(=O)c2cc3c(cc2Br)NC(=O)C(C)O3)cc1 (stereo not shown) [BC19216]
> 10 µM	> 10 µM			CC1Oc2cc(S(=O)(=O)N3CCOCC3)c(Br)cc2NC1=O (stereo not shown) [BC19217]
> 10 µM	> 10 µM			CC(C)CNS(=O)(=O)c1cc2c(cc1Br)NC(=O)C(C)O2 (stereo not shown) [BC19218]

IC50 (TNF release; [1])	IC50 (NF-κB; [2])	IC50 (TNF release; [3])	IC50 (NF-κB; LPS-stimulated)	Structure (SMILES)
> 10 µM	> 10 µM			CC1Oc2cc(S(=O)(=O)N3CCN(C)CC3)c(Br)cc2NC1=O (stereo not shown) [BC19219]
> 10 µM	0.1 to 1 µM			CCC1Oc2cc(S(=O)(=O)Nc3cccc(F)c3)c(Br)cc2NC1=O (stereo not shown) [BC19220]
> 10 µM	0.1 to 1 µM			CCC1Oc2cc(S(=O)(=O)Nc3cccc(Cl)c3)c(Br)cc2NC1=O (stereo not shown) [BC19221]
> 10 µM	> 10 µM			CCCNS(=O)(=O)c1cc2c(cc1Br)NC(=O)C(CC)O2 (stereo not shown) [BC19222]
> 10 µM	> 10 µM			CCC1Oc2cc(S(=O)(=O)NC3CCCCC3)c(Br)cc2NC1=O (stereo not shown) [BC19223]
> 10 µM	0.1 to 1 µM			CCC1Oc2cc(S(=O)(=O)Nc3ccc(C)cc3)c(Br)cc2NC1=O (stereo not shown) [BC19224]
> 10 µM	0.1 to 1 µM			Cc1ccc(NS(=O)(=O)c2cc(Br)cc3c2OC(C)C(=O)N3)cc1Cl (stereo not shown) [BC19225]
> 10 µM	1 to 10 µM			CC1Oc2c(cc(Br)cc2S(=O)(=O)N2CCOCC2)NC1=O (stereo not shown) [BC19226]
> 10 µM	> 10 µM			CC(C)CNS(=O)(=O)c1cc(Br)cc2c1OC(C)C(=O)N2 (stereo not shown) [BC19227]
> 10 µM	> 10 µM			CC1Oc2c(cc(Br)cc2S(=O)(=O)N2CCN(C)CC2)NC1=O (stereo not shown) [BC19228]
> 10 µM	1 to 10 µM			CCCNS(=O)(=O)c1cc(Br)cc2c1OC(CC)C(=O)N2 (stereo not shown) [BC19229]
> 10 µM	< 0.1 µM			CCC1Oc2c(cc(Br)cc2S(=O)(=O)NCc2ccccc2)NC1=O (stereo not shown) [BC19230]
> 10 µM	< 0.1 µM			CCC1Oc2c(cc(Br)cc2S(=O)(=O)Nc2cccc(F)c2)NC1=O (stereo not shown) [BC19231]
> 10 µM	< 0.1 µM			CCC1Oc2c(cc(Br)cc2S(=O)(=O)Nc2cccc(Cl)c2)NC1=O (stereo not shown) [BC19232]
1 to 10 µM	1 to 10 µM			CCC1Oc2c(cc(Br)cc2S(=O)(=O)NC2CCCCC2)NC1=O (stereo not shown) [BC19233]
1 to 10 µM	< 0.1 µM			CCC1Oc2c(cc(Br)cc2S(=O)(=O)Nc2ccc(C)cc2)NC1=O (stereo not shown) [BC19234]
		> 10 µM	> 10 µM	CNC(=O)N1c2cc(S(=O)(=O)N3CCCC3)ccc2NC(=O)C1C (stereo not shown) [BC19236]
